Target: T1, human GABA receptor (subunits α1β3γ2) (Homo sapiens, UniProt P14867+P18507+P28472)
T1 construct: expressed in transfected cells; host or cells: HEK293
Experiment: Manual whole-cell patch-clamp recording of GABA receptor-mediated Cl- current in HEK293 cells
Format: cell-based
Conditions: for mode of action at the human GABAA receptor: human GABAA receptor α1β3γ2, electrophysiological recordings; for effect on human GABA receptor-mediated Cl- current: human α1β3γ2 receptor expressed in HEK293 cells, manual whole-cell patch-clamp
Protocol: All the compounds of the present invention were tested and validated using electrophysiological recordings on the human GABAA receptor comprising of the following subunits α1β3γ2. The compounds of the present invention are used in the preparation of a neuroactive pharmaceutical composition, in improving sperm motility or in labeling of biomolecules.
The human GABA receptor (subunits α1β3γ2) was expressed in HEK293 cells in manual whole-cell patch-clamp settings.
These compounds of the present invention are experimentally shown to specifically bind to the GABAA receptor. Therefore, they are capable of activating, inhibiting or modulating the GABAA receptor. These compounds were derived in-silico and tested in-vitro in cell cultures. […] The human GABA receptor (subunits α1β3γ2) used in these experiments was expressed in the HEK293 cells in manual whole-cell patch-clamp settings.

T1 sequence (P14867 28-456): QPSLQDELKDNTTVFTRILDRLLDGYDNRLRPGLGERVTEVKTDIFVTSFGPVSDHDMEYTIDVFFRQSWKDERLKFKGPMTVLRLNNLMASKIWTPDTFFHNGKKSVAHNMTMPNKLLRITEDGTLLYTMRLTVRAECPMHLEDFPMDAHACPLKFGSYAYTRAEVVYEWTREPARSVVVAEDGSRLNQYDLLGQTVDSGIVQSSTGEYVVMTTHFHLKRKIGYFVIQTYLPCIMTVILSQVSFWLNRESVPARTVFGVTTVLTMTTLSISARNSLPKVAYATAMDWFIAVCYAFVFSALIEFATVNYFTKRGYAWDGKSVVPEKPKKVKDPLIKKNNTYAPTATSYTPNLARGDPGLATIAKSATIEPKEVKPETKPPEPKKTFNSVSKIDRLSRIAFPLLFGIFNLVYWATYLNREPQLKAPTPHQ
T1 sequence (P28472 26-473): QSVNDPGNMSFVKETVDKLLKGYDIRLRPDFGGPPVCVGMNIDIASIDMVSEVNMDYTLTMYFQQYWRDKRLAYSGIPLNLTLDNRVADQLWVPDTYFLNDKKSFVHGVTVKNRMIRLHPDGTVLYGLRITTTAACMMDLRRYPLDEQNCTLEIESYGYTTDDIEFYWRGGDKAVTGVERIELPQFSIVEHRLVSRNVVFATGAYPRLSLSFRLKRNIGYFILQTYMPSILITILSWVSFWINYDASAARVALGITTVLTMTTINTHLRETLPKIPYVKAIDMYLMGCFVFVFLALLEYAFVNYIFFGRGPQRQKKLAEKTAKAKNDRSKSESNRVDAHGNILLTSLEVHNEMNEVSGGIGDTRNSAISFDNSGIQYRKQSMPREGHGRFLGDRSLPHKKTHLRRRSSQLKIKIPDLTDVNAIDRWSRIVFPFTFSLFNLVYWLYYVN
T1 sequence (P18507 40-475): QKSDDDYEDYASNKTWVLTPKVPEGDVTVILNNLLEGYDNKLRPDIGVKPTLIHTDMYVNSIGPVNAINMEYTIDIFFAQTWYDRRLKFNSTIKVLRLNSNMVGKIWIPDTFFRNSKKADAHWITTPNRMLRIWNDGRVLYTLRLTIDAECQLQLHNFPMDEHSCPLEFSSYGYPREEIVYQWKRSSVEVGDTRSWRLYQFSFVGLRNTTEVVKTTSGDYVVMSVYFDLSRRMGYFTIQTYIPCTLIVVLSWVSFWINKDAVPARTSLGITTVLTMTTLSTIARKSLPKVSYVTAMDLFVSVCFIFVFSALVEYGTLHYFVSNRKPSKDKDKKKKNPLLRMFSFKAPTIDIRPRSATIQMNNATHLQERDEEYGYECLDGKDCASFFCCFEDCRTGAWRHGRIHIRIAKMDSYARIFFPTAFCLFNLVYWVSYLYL

mode of action at the human GABAA receptor | effect on human GABA receptor-mediated Cl- current | Structure (SMILES)
positive allosteric modulation | selective potentiation | CC(C)CC(NC(=O)c1ccc(S(N)(=O)=O)o1)c1cccs1 (stereo not shown) [Compound 1]
inhibiting | selective potentiation | O=C(O)CC1(c2ccc(Br)cc2)CNC1 [Compound 2]

From US11911364B2, “Positive allosteric modulators of GABAA receptor” (PEPTICOM LTD., priority 2018, dated 2024)
